Earlier results on four compounds are cited in patent publication US7341836B2, “Modified cyclic nucleotide gated ion channels” (The Regents of the University of Colorado, priority 2001, dated 2008).

The target of one series is T1, PDE VII (UniProt Q9QXQ1).
T1 sequence (Q9QXQ1 1-446): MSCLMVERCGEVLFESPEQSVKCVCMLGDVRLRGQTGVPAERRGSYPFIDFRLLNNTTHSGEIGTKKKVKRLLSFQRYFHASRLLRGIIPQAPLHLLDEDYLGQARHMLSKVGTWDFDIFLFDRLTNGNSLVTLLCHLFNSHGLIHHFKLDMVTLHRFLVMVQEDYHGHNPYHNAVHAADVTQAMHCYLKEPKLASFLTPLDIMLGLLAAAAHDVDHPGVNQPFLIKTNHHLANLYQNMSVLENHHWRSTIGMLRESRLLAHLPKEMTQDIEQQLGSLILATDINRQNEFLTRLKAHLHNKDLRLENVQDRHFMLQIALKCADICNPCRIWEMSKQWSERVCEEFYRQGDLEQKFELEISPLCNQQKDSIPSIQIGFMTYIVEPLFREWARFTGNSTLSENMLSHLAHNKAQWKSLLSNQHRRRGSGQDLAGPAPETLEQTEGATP
The following applies: cited from earlier work.

Another series addresses T2, PDE X (Mus musculus, UniProt Q8CA95).
T2 construct: host or cells: heterologously expressed
T2 sequence (Q8CA95 1-790): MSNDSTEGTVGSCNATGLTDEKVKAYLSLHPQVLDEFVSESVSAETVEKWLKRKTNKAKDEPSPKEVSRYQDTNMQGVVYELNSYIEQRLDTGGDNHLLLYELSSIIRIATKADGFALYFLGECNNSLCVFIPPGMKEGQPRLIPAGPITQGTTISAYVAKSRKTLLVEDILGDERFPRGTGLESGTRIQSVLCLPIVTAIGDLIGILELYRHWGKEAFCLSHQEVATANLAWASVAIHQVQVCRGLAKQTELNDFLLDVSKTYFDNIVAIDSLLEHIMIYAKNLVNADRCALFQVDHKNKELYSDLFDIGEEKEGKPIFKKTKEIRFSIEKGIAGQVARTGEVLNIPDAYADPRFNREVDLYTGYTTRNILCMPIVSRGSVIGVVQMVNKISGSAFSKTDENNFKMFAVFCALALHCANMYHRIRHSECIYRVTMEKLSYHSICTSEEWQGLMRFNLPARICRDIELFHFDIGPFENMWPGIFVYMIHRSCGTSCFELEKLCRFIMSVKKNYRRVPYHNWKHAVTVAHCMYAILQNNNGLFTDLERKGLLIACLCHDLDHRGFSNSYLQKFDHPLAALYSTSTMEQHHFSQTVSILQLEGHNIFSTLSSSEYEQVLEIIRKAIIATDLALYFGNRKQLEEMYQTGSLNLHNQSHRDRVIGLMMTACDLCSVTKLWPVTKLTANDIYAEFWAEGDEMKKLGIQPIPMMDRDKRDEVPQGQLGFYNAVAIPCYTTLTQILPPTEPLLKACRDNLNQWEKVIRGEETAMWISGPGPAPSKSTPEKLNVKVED
The following applies: cited from earlier work.

Another series addresses T3, PDE IX (UniProt O70628).
T3 sequence (O70628 1-534): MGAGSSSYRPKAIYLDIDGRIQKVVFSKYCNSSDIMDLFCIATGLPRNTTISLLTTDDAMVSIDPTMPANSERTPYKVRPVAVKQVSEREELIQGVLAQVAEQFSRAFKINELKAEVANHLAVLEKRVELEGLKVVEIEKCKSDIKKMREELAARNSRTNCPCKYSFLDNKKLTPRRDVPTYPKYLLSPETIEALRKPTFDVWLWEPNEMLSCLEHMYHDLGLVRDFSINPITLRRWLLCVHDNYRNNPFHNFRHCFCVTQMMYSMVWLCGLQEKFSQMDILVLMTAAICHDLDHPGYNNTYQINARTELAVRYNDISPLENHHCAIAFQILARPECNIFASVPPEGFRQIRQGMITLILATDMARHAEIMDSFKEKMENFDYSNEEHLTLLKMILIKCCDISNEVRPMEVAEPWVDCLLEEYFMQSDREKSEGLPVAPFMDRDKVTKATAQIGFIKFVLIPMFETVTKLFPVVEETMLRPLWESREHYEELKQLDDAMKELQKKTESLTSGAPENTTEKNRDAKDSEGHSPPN
The following applies: read-out: IC50, PDE IX; cited from earlier work.

Another series addresses PDE V (UniProt O76074). The following applies: cited from earlier work.

For `COc1ccc(C2CNC(=O)C2)cc1OC1CCCC1` (stereo not shown) [Rolipram], the concentration for half-maximal inhibition (IC50) on PDE VII was greater than 100 µM; on PDE X, 47 µM; on PDE IX it was greater than 200 µM.
Consider `CCCCCC[C@@H]([C@@H](C)O)n1cnc2c(N)ncnc21` (racemic) [EHNA], for which the half-inhibitory concentration (IC50) was greater than 100 µM at PDE VII, greater than 500 µM at PDE V, 69 µM at PDE X and greater than 100 µM at PDE IX.
As for `CCCCOc1cc(CC2CNC(=O)N2)ccc1OC` (stereo not shown) [RO-20-1724, 4-(3-butoxy-4-methoxybenzyl)-2-imidazolidinone], the figures for the half-maximal inhibitory concentration (IC50) at PDE VII and at PDE V were greater than 200 µM and 250 µM, respectively.
`CC(C)Cn1c(=O)n(C)c(=O)c2[nH]cnc21` [IBMX, 3-isobutyl-1-methylxanthine]: the half-inhibitory concentration (IC50) was 2 to 8 µM on PDE VII, 4 to 7 µM on PDE V, 2.6 µM at PDE X and greater than 200 µM at PDE IX.
